Key:
[1] = test system: Rev responsive element (RRE) RNA; experiment: Ratio of the dissociation constant between Rev37-50 and the PNA-peptide; format: nucleic-acid assay
[2] = biological target: Rev responsive element (RRE) RNA; experiment: Dissociation constant of compound with Rev-responsive element (RRE) IIB RNA was determined by the competition assay; format: nucleic-acid assay

SMILES	Ratio [1]	Kd [2]
C[C@H](NC(=O)CN(CCNC(=O)CN(CCNC(=O)CCC(=O)O)C(=O)Cn1cnc2c(N)ncnc21)C(=O)Cn1ccc(N)nc1=O)C(=O)N[C@@H](CCCNC(=N)N)C(=O)N[C@@H](CCCNC(=N)N)C(=O)N[C@@H](CC(N)=O)C(=O)N[C@@H](CCCNC(=N)N)C(=O)N[C@@H](CCCNC(=N)N)C(=O)N[C@@H](CCCNC(=N)N)C(=O)N[C@@H](CCCNC(=N)N)C(=O)N[C@@H](Cc1c[nH]c2ccccc12)C(=O)N[C@@H](CCCNC(=N)N)C(=O)N[C@@H](CCC(=O)O)C(=O)N[C@@H](CCCNC(=N)N)C(=O)N[C@@H](CCC(N)=O)C(=O)N[C@H](CCCNC(=N)N)C(N)=O	3.1	28 nM
C[C@H](NC(=O)CN(CCNC(=O)CN(CCNC(=O)CN(CCNC(=O)CCC(=O)O)C(=O)Cn1ccc(N)nc1=O)C(=O)Cn1cnc2c(=O)[nH]c(N)nc21)C(=O)Cn1ccc(N)nc1=O)C(=O)N[C@@H](CCCNC(=N)N)C(=O)N[C@@H](CCCNC(=N)N)C(=O)N[C@@H](CC(N)=O)C(=O)N[C@@H](CCCNC(=N)N)C(=O)N[C@@H](CCCNC(=N)N)C(=O)N[C@@H](CCCNC(=N)N)C(=O)N[C@@H](CCCNC(=N)N)C(=O)N[C@@H](Cc1c[nH]c2ccccc12)C(=O)N[C@@H](CCCNC(=N)N)C(=O)N[C@@H](CCC(=O)O)C(=O)N[C@@H](CCCNC(=N)N)C(=O)N[C@@H](CCC(N)=O)C(=O)N[C@H](CCCNC(=N)N)C(N)=O	9	9.6 nM

— ChEMBL document CHEMBL1134253, “HIV Rev peptides conjugated with peptide nucleic acids and their efficient binding to RRE RNA” (Bioorg Med Chem Lett, 2001)
